Patent US9102967B2, “PmST2 enzyme for chemoenzymatic synthesis of α-2-3-sialylglycolipids” (priority 2012, dated 2015)

Tests used:
[1] = target: T1, MBP-PmST2-His6 (Pasteurella multocida, UniProt Q9CNC4, M25T); test: Acceptor substrate specificity studies (CE analysis); type: biochemical; settings: for % product formation: acceptor 2 mM, CMP-Neu5Ac 4 mM, 10 min, 37° C., pH 8.0, 0.4% Triton X-100; for % Relative: relative to LacβPro-triazole-C14 = 100
T1 construct: used to clone of the full-length MBP-PmST2-His6 fusion protein in pMa1-c4X vector; made in house; host or cells: E. coli BL21(DE3)
Description: Enzymatic Reactions. All reactions were carried out in duplicate for 10 min at 37° C. in a total volume of 10 μl in Tris-HCl (200 mM, pH 8.0) containing an acceptor substrate (2 mM), CMP-Neu5Ac (4 mM), 0.4% Triton X-100, and enzyme (3.6 μg μl^−1). Addition of 15 μl of cold 95% ethanol was used to terminate each reaction. All reactions were incubated on ice for 10 min and were then centrifuged for 5 min at 13,000 rpm. The supernatant was transferred to a new vial for CE analysis.

[2] = system: N. meningitidis (MC58 and 406Y) Lst; settings: previous report; cited from earlier work
[3] = target: T1, MBP-PmST2-His6; type: biochemical; settings: MnCl2/MgCl2 1, 5, 10 or 20 mM; EDTA or 2-ME 1 or 10 mM; acceptor LacβPro-triazole-C14
Description: Reactions were carried out in duplicate at 37° C. for 15 min in a total volume of 15 μl in a Tris-HCl buffer (200 mM, pH 8.0) containing LacβPro-triazole-C14 (2 mM), CMP-Neu5Ac (8 mM), 0.3% Triton X-100, and the enzyme (2.4 μg μl^−1). For metal effects, various concentrations (1, 5, 10, or 20 mM) of MgCl2 or MnCl2 were added and ethylenediaminetetraacetic acid (EDTA as chelating agent was used at two concentrations (1 or 10 mM). A reducing reagent 2-mercaptoethanol (2-ME) was used at two concentrations (1 or 10 mM). Reaction without metal ions, EDTA, or 2-ME was used as a control. All reactions were stopped by adding 15 μl of pre-chilled 95% ethanol and the reaction mixtures were kept on ice. The samples were centrifuged at 13,000 rpm for 5 min before the supernatants were analyzed by CE as described above.

[4] = target: T2, PmST1 (Pasteurella multocida, UniProt Q15KI8); settings: cited from earlier work
T2 sequence (Q15KI8 entry or part of it): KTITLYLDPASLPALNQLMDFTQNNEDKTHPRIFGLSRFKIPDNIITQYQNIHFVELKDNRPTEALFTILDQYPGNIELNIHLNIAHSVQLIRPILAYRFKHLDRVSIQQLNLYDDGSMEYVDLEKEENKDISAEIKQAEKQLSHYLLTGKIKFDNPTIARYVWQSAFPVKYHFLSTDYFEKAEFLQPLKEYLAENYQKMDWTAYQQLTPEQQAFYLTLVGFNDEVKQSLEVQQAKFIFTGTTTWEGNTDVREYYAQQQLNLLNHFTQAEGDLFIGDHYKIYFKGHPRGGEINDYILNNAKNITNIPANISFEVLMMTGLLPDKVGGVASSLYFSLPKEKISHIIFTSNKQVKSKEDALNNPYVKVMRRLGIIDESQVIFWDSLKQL

[5] = target: T1, MBP-PmST2-His6; type: biochemical; settings: for Km / kcat / Vmax: apparent, 37° C.; for Km: Tris-HCl pH 8.0, 0.3% Triton X-100, varied substrate, other fixed (LacβPro-triazole-C14 2.0 mM or CMP-Neu5Ac 4.0 mM); for kcat: pH 8.0; for Vmax: pH 8.0, enzyme 14 μM
Description: Reactions were carried out at 37° C. for […] in a total volume of 15 μl in Tris-HCl buffer (200 mM, pH 8.0) containing 2-mercaptoethanol (1 mM), 0.3% Triton X-100, enzyme (14 μM), with varied CMP-Neu5Ac concentrations (0.25, 0.5, 1.0, 2.0, 5.0, and 10.0 mM) and a fixed LacβPro-triazole-C14 (2.0 mM) concentration, or varied LacβPro-triazole-C14 concentrations (0.5, 1.0, 2.0, 5.0, 10.0, and 20.0 mM) or varied LacβPro2AA concentrations (0.5, 1.0, 2.0, 5.0, 10.0, and 25.0 mM) and a fixed CMP-Neu5Ac concentration (4.0 mM). HPLC assays were used for reactions with LacβPro2AA as the sialyltransferase acceptor and CE assays were used for reactions with LacβPro-triazole-C14 as the sialyltransferase acceptor. Apparent kinetic parameters were obtained by fitting the data (the average values of duplicate assay results) into the Michaelis-Menten equation using Grafit 5.0.

[6] = target: T1, MBP-PmST2-His6; test: Time-course study of α-2,3-sialyltransferase activity; type: biochemical; settings: acceptor 2 mM, CMP-Neu5Ac 8 mM, 37° C., pH 8.0
Description: (§1) Enzymatic reactions were performed in a total volume of 20 μl (when LacβPro2AA was used as an acceptor) or 40 μl (when LacβPro-triazole-C 14 was used as an acceptor) in a Tris-HCl buffer (200 mM, pH 8.0) containing an acceptor (2 mM of LacβPro2AA or LacβPro-triazole-C14), CMP-Neu5Ac (8 mM), 0.3% Triton X-100, and a sialyltransferase ([…] MBP-PmST2-His6 or PmST1) at 37° C. At different time points (0, 1, 5, 10, 15, 20, 30, and 60 min), 1.5 μl aliquots were taken from the LacβPro2AA reaction and pre-chilled 12% acetonitrile aqueous solution (148.5 μl) was added to each aliquot. Similarly, 3.5 μl aliquots were taken from the LacβPro-triazole-C14 reaction at different time points and pre-chilled 95% ethanol (7 μl) was added to each aliquot. All samples were kept on ice for 10 min and then centrifuged for 5 min at 13,000 rpm. Supernatants from LacβPro2AA reactions were analyzed by a Shimadzu LC-2010A HPLC system equipped with a membrane on-line degasser, a temperature control unit, and a fluorescence detector (the excitation wavelength was set at 315 nm and the emission wavelength was set at 400 nm) using a reverse phase Premier C18 column (250×4.6 mm I.D., 5 μm particle size, Shimadzu) protected with a C18 guard column cartridge. Mobile phase used was 12% acetonitrile in water. Supernatants from LacβPro-triazole-C14 reactions were analyzed by a Beckman P/ACE MDQ capillary electrophoresis (CE) system (60 cm×75 μm i.d.) equipped with a PDA detector (optimal absorption at 214 nm). The running buffer used was sodium borate buffer (50 mM, pH 10.2) containing β-cyclcodextrin (20 mM).

[7] = target: T2, PmST1; test: as above; type: biochemical
Description: as §1

[8] = target: T1, MBP-PmST2-His6; test: pH profile of α2-3-sialyltransferase reaction; type: biochemical; settings: acceptor 2 mM, 0.3% Triton X-100
Description: Each reaction was carried out in duplicate at 37° C. for 15 min in a buffer (200 mM) with a total volume of 15 μl containing an acceptor (2 mM, LacβPro2AA or LacβPro-triazole-C14), CMP-Neu5Ac (8 mM), 0.3% Triton X-100, and the enzyme MBP-PmST2-His6 (2.4 μg μl^−1). Buffers used were: NaOAc-HOAc (pH 4.0-6.0), Tris-HCl (pH 7.0-9.0), and CHES (pH 10.0). Enzymatic reactions were terminated by adding 15 μl of pre-chilled 95% ethanol. All samples were kept on ice for 10 min and then centrifuged at 13,000 rpm for 5 min. Supernatants were analyzed by HPLC (for LacβPro2AA reaction) or CE (for LacβPro-triazole-C14 reaction) as described above for the time course studies.

Q: What does the source list for `CCCCCCCCCCCCCCc1cn(CCCOC2OC(CO)C(O)C(OC3OC(CO)C(O)C(O)C3O)C2NC(C)=O)nn1` (stereo not shown) [Galβ1-3GlcNAcβPro-triazole-C14]?
A: % product formation [1]: <4%; % Relative [1]: <11%

Q: For `[Cl][Mn][Cl]` [MnC12, MnCl2], which stimulation of activity [2] is on record?
A: 3 fold

Q: And the “effect on α2,3-sialyltransferase activity (in words)” value [3]?
A: did not affect the activity significantly

Q: What about the “effect on sialyltransferase activity of PmST1 (in words)” value [4] of the same compound?
A: activity decreases

Q: Which “effect on α2,3-sialyltransferase activity (in words)” value [3] does the source give for `OCCS` [2-mercaptoethanol, reference compound] here?
A: did not affect

Q: With “Galβ1-4GlcNAcβPro-triazole-C14 [LacNAcβPro-triazole-C14]” as the compound, how does the “% product formation” value [1] read?
A: 18.5 ± 2.7%

Q: What about the “% Relative” value [1] of the same compound?
A: 51.2%

Q: With `[Cl-].[Cl-].[Mg+2]` [MgC12, MgCl2] as the compound, how does the stimulation of activity [2] read?
A: 2 fold

Q: What about the “effect on α2,3-sialyltransferase activity (in words)” value [3] of the same compound?
A: did not affect the activity significantly

Q: What about the “effect on sialyltransferase activity of PmST1 (in words)” value [4] of the same compound?
A: does not stimulate or change the sialyltransferase activity

Q: Which “% product formation” value [1] does the source give for `CCCCCCCCCCCCCCc1cn(CCCO[C@H]2O[C@H](CO)[C@H](O)[C@H](O[C@@H]3O[C@H](CO)[C@H](O)[C@H](O)[C@H]3O)[C@H]2NC(C)=O)nn1` [Galβ1-3GalNAcαPro-triazole-C14] here?
A: <2%

Q: What about the “% Relative” value [1] of the same compound?
A: <6%

Q: For lactosyl ceramide [reference compound], which “acceptor substrate for PmST2 (in words)” value [1] is on record?
A: not an acceptor

Q: For `O=C(O)CN(CCN(CC(=O)O)CC(=O)O)CC(=O)O` [EDTA, ethylenediaminetetraacetic acid, reference compound], which “effect on α2,3-sialyltransferase activity (in words)” value [3] is on record?
A: did not affect the activity significantly

Q: With Galβ1-3GlcNAcαPro-triazole-C14 as the compound, how does the “% product formation” value [1] read?
A: <2%

Q: And the “% Relative” value [1]?
A: <6%

Q: For `CCCCCCCCCCCCCCc1cn(CCCOC2OC(CO)C(O)C(O)C2O)nn1` (stereo not shown) [GalβPro-triazole-C14], which “% product formation” value [1] is on record?
A: 9.2 ± 1.3%

Q: And the “% Relative” value [1]?
A: 25.5%

Q: With “cytidine 5′-monophosphate N-acetylneuraminic acid [CMP-Neu5Ac, reference compound]” as the compound, how does the Km [5] read?
A: 1300 ± 100 µM

Q: What about the kcat [5] of the same compound?
A: 0.0883 ± 0.0067 s⁻¹

Q: What about the Vmax [5] of the same compound?
A: (7.4 ± 0.5) × 10^−2 mM min^−1

Q: With “Galβ1-4GlcβPro-triazole-C14 [LacβPro-triazole-C14]” as the compound, how does the “fold difference in KM values (stronger binding) versus LacβPro2AA” value [5] read?
A: 7 fold

Q: And the Km [5]?
A: 4100 ± 300 µM

Q: What about the kcat [5] of the same compound?
A: 0.2 ± 0.017 s⁻¹

Q: And the Vmax [5]?
A: (1.7 ± 0.1) × 10^−1 mM min^−1

Q: What about the “fold higher catalytic activity versus LacβPro2AA as acceptor” value ([5]; from differences in KM and kcat) of the same compound?
A: 10 fold

Q: And the “sialylation achieved in 1 hour” value [6]?
A: 60%

Q: What about the “time at which the sialyltransferase reaction reached optimum” value ([7]; acceptor 2 mM, CMP-Neu5Ac 8 mM, 37° C., pH 8.0) of the same compound?
A: 15 min

Q: And the “product formation at optimum” value ([7]; at 15 min)?
A: less than 5%

Q: And the “acceptor substrate for PmST2 (in words)” value [1]?
A: best acceptor substrate

Q: And the “% product formation” value [1]?
A: 36.1 ± 1.5%

Q: What about the “% Relative” value [1] of the same compound?
A: 100%

Q: What about the “optimal pH range with this acceptor” value [8] of the same compound?
A: 5.0-8.0
